Data published in patent US20180344715A1, “WNT/BETA-CATENIN SIGNAL TRANSDUCTION INHIBITORS AND THEIR USE IN TREATMENT OR PREVENTION OF DISEASES AND CONDITIONS LINKED WITH SAID TRANSDUCTION” (BERGEN TEKNOLOGIOVERFORING AS, priority 2015, published 2018).

Key:
[1] = system: β-catenin; test: Immunofluorescence staining of β-catenin in SW480 cells; type: cell-based; settings: SW480, 5 μM, 24 hours
Procedure: Cells were seeded singly on 12 mm glass coverslips in 24-well plates. At the second day, cells were washed with PBS, fixed in 4% PBS buffered paraformaldehyde at room temperature for 20 minutes, permeabilized in 0.5% Triton X-100 for 10 minutes, blocked in 100 mM glycine for 5 minutes and with PBS wash between each step. After blocking with 0.5% BSA/PBS for 15 minutes, cells were incubated with primary antibodies (β-catenin, ab16051, 1:1000, Abcam; Ki67, ab16667, clone SP6, 1:50, Abcam) in 0.5% BSA/PBS for 1 hour at room temperature. The FITC-labelled secondary antibody (Southern Biotech, 4050-02) was added for 45 minutes at room temperature. Coverslips were mounted in SlowFade® Diamond Antifade Mountant with DAPI (Life Technologies, S36964) on glass slides. Images were captured using the Qcapture Suite software with a Qimaging Exi Blue camera attached to a Leica DMRBE microscope.

[2] = system: HCT116 cells; test: Soft agar colony-formation assay, HCT116; type: cell-based; settings: 10 days
Procedure: The soft agar colony-formation assay was performed using the CellTransformation Assays kit (catalog no. CBA-130; Cell Biolabs, Inc.) according to the recommended protocol. […] Medium containing drugs was replaced every 3 d. For the clonogenic assay, positively transfected cells (wild-type and mutant GFP-SHPRH and control GFP) were enriched by FACS and were seeded in six-well plates at a density of 3,000 cells per well. Medium was changed every 3 d. On the last day colony growth was quantified by crystal violet staining and measurement of OD at 590 nm.

[3] = system: HCT116 cells; test: EdU label release assay, HCT116; type: cell-based; settings: HCT116, 5 μM, 3 days
Procedure: Two days later, cells were seeded singly onto 12 mm glass coverslips in 24-well plates. One day after, EdU was detected using the Click-iT® Plus EdU Alexa Fluor 488 Imaging Kit (Life Technologies, C10637) according to the manufacturer's protocol. For double staining of EdU and other proteins, the EdU stained cells were further used for immunofluorescence staining as described above. Intensity of EdU staining in paired cells were quantified by Photoshop CS6 software, unequal EdU distribution was considered when paired cells had intensity ratio higher than 2.

[4] = system: Wnt/β-catenin signaling; test: TOPFlash reporter assay in 293FT cells; type: cell-based, human; settings: 1 μM 6BIO together with drug at indicated concentrations, 24 hours
Procedure: TOPFlash assay was performed in 96-well plate. For each well, 293T cells were transfected with 0.22 μg TOPFlash (or FOPFlash with mutant TCF binding sites) and 0.02 μg pRL-SV40P using lipofectamine 3000. For co-transfection with other plasmids, 0.1 μg additional DNA was used. […] The luciferase activity was measured 24 hours later by using Dual-Glo® Luciferase Assay System (Promega, E2940) according to the recommended protocol. The TOPFlash or FOPFlash activity was normalized to Renilla luciferase signals.
TOPFlash assay was performed as described above. Briefly, for each well of a 96-well plate 293FT cells were transfected with 0.22 μg TOPFlash (or FOPFlash with mutant TCF binding sites) and 0.02 μg pRL-SV40P using lipofectamine 3000. For co-transfection with other plasmids, 0.1 μg additional DNA was used. Four hours after transfection, 293FT cells were treated with DMSO, 1 μM 6B10 and 1 μM 6B10 together with pazopanib, orlistat and topotecan at varying concentrations for 24 hours. The luciferase activity was then measured using Dual-Glo® Luciferase Assay System (Promega, E2940) according to the recommended protocol. The TOPFlash or FOPFlash activity was normalized to Renilla luciferase signals.

[5] = target: T1, free GFP (Aequorea victoria, UniProt P42212); test: MST ligand-binding assay, free GFP negative control; settings: SW480 cell lysates, negative controls, two parallels
T1 construct: expressed in transfected cells; host or cells: SW480
Procedure: Ten million SW480 cells overexpressing GFP-tagged SHPRH or free GFP were lysed in 1 mL radioimmunoprecipitation assay (RIPA) buffer. Cell lysates were diluted in buffer A [50 mM Hepes buffer (pH 7.5), 5 mM DTT, 10 mM CaCl2), 50 mM NaCl, and 0.05% Tween-20] to a final concentration at which the fluorescent signals of the GFP proteins were similar and well above the detection limit of the Monolith NT.115 instrument (NanoTemper Technologies GmbH). Ten microliters of each receptor were mixed with 10 μL of the ligand at various concentrations from 100 μM to 3.05 nM. Specifically, the ligand (4 mM in 100% DMSO) was diluted 1:20 to a final concentration of 200 μM in buffer A (giving 5% DMSO). Ten microliters of the 200 μM ligand solution was further serially diluted 1:1 in 10 μL of buffer A supplemented with 5% DMSO to make a 16-sample dilution series down to 6.1 nM. Ten microliters of the cell lysate were added to 10 μL of each ligand solution. […] The fluorescence signal during the thermophoresis was monitored for 30 s, and the change in fluorescence was analyzed as thermophoresis with T-jump. The Kd was calculated by fitting a standard binding curve to the average of four independent dilution series.

[6] = system: β-catenin; test: Western blotting of β-catenin in SW480 cells; type: cell-based
Procedure: Culture cells were lysed in RIPA buffer (50 mM Tris-HCl, pH 7.4, 150 mM NaCl, 1% NP-40, 0.5% sodium deoxycholate, 0.1% SDS, 1 mM EDTA) containing freshly added protease inhibitors (Roche, 11836153001). Protein lysates were resolved in Novex 10% BisTris MiniGels (Life technologies, NP0303BOX) and transferred onto PVDF membranes with Pierce 1-Step Transfer Buffer (Thermo Fisher Scientific, 84731). Membranes were developed by using Pierce Fast Western Blot Kit with ECL Substrate (Thermo Fisher Scientific, 35050) and primary antibodies (β-catenin, ab16051, 1:2000 Abcam; GAPDH, ab181602, clone EPR16891, 1:20000, Abcam; hemagglutinin, ab9134, 1:2000, Abcam; FLAG, ab1162, 1:1000, Abcam; ubiquitin, ab7254, clone Ubi-1, 1:5000, Abcam; SHPRH, ab80129, 1:1000, Abcam; non-phospho-(active) β-catenin (Ser33/37/Thr41), 4270, 1:1000, Cell Signaling Technology; phospho-3-catenin (Ser33/37/Thr41), 9561, 1:1000, Cell Signaling Technology; β-catenin-Thr41/Ser45, 9565, 1:1000, Cell Signaling Technology; MED23, BD550429, clone D27-1805, 1:500, BD Biosciences). Proteins were visualized and captured by a ChemiDOC XRS system and Quantity One software (Bio-Rad Laboratories).

CNC(=O)c1ccccc1Sc1ccc2c(/C=C/c3ccccn3)n[nH]c2c1 [axitinib, N-Methyl-2-[[3-[(E)-2-pyridin-2-ylethenyl]-1H-indazol-6-yl]sulfanyl]benzamide]
cells with unequal distribution of nuclear β-catenin (β-catenin ACD) [1]: ~19% | colony growth [2]: strongly and dose-dependently inhibited | EdU ACD [3]: increased significantly | TOPFlash activity normalized to Renilla luciferase activity [4]: dose dependently inhibits | binding of the ligand to free GFP [5]: did not show any binding | phosphorylated and non-phospho (active) β-catenin (ABC) ([6]; APC mutant SW480 cells, 24 hours): reduced | β-catenin level (Western blots) ([6]; SW480, dose course 24 hours, time course at 5 μM): dose and time dependent decrease
